In patent US20120225909A1, “INDAZOLE ANALOG” (priority 2009, published 2012):

How the values were obtained:
Format in all cases: cell-based
[1] = biological target: T1, human β2-adrenergic receptor (Homo sapiens, UniProt P07550); experiment: Test Case 3-C: human β2-adrenergic receptor agonist activity (Cerep cellular functional GPCR, beta 2); settings: concentration 10 μM, isoproterenol = 100%
T1 construct: expressed in transfected cells; host or cells: CHO (Chinese hamster ovary) cells, pcDNA3
T1 sequence (P07550 whole entry): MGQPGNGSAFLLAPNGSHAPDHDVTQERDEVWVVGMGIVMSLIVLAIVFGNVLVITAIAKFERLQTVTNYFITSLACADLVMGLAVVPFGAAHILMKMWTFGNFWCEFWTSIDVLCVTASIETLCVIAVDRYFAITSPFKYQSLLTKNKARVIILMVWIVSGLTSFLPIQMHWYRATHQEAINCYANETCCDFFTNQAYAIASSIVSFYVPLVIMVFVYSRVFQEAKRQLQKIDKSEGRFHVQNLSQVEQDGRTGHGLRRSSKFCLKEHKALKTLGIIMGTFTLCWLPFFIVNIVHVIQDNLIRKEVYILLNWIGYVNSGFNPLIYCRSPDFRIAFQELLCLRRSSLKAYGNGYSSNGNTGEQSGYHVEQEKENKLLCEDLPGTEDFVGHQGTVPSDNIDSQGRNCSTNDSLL
Description: Measurement of Human β2-Adrenergic Receptor Agonist Activity

[2] = biological target: T2, human α1A-adrenergic receptor (Homo sapiens, UniProt P35348); experiment: Test Case 4-B: human α1A-adrenergic receptor agonist activity (Cerep cellular functional GPCR, alpha 1A); design: expressed in transfected cells; settings: concentration 10 μM; for α1 receptor % of Control Agonist Response, Control; Epinephrine: epinephrine = 100%; for α1 receptor % of Control Agonist Response, Control; Norepinephrine: norepinephrine = 100%
T2 sequence (P35348 1-466): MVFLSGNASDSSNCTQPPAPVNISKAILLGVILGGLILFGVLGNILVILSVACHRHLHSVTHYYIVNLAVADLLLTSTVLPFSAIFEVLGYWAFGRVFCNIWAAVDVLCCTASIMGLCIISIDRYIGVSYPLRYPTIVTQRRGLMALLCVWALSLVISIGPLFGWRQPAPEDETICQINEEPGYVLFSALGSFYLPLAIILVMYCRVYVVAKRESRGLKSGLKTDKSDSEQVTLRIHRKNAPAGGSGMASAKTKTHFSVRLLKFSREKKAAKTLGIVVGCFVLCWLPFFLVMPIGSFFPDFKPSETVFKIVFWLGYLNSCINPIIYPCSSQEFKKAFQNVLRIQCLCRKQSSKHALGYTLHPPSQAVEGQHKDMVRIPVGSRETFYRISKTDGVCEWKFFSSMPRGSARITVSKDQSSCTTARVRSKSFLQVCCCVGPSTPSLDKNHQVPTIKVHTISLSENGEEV
Description: Measurement of Human α1A-Adrenergic Receptor Agonist Activity
The human α1A-adrenergic receptor agonist activity] can be measured by […] Functional GPCR·Gs, alpha 1A (Ref. 722-36a) listed on p. 52 of the Cerep 2008 CATALOG IN VITRO PHARMACOLOGY & ADME-TOX.

[3] = biological target: T3, human β1-adrenergic receptor (Homo sapiens, UniProt P08588); experiment: Test Case 2-C: human β1-adrenergic receptor agonist activity (Cerep cellular functional GPCR, beta 1); settings: concentration 10 μM, isoproterenol = 100%
T3 construct: expressed in transfected cells; host or cells: CHO (Chinese hamster ovary) cells, pcDNA3
T3 sequence (P08588 whole entry): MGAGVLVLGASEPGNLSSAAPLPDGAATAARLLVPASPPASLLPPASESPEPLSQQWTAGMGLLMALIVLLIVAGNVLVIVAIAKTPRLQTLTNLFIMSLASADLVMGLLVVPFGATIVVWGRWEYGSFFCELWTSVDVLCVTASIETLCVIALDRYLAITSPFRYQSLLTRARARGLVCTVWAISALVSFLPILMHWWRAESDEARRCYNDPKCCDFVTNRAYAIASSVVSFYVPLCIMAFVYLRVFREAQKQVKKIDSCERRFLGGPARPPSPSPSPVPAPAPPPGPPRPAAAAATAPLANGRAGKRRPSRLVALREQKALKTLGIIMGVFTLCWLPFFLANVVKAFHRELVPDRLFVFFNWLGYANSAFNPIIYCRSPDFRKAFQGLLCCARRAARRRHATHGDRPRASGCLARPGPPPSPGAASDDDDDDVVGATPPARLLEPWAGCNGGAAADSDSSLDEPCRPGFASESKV
Description: Measurement of Human β1-Adrenergic Receptor Agonist Activity

| Structure (SMILES) | β2 receptor % of Control Agonist Response [1] [%] | α1 receptor % of Control Agonist Response, Control; Epinephrine [2] [%] | α1 receptor % of Control Agonist Response, Control; Norepinephrine [2] [%] | β1 receptor % of Control Agonist Response [3] [%] | β2 receptor % of Control Agonist Response ([1]; 10 µM) [%] | α1 receptor % of Control Agonist Response, Control; Epinephrine ([2]; 10 µM) [%] | α1 receptor % of Control Agonist Response, Control; Norepinephrine ([2]; 10 µM) [%] |
| --- | --- | --- | --- | --- | --- | --- | --- |
| Cc1n[nH]c2cc(OCCNC[C@H](O)c3cccc(NS(=O)(=O)c4ccc(F)c(N)c4)c3)ccc12 [ex58, (R)-3-amino-4-fluoro-N-(3-(1-hydroxy-2-(2-(3-methylindazol-6-yloxy)ethylamino)ethyl)phenyl) benzenesulfonamide] | 1.8 | 0.6 | 0.5 | 18 |  |  |  |
| O=S(=O)(Nc1cccc([C@@H](O)CNCCOc2ccc3c(Cl)n[nH]c3c2)c1)c1cn[nH]c1 [ex167, (R)-N-(3-(2-(2-(3-chloroindazol-6-yloxy)ethylamino)-1-hydroxyethyl)phenyl)pyrazole-4-sulfonamide] | 0.3 | 26 | 22 | 6.4 |  |  |  |
| Nc1ccc(F)c(S(=O)(=O)Nc2cccc([C@@H](O)CNCCOc3ccc4c(OC(F)F)n[nH]c4c3)c2)c1 [ex106] | 2.1 | −0.2 | −0.2 | 11 |  |  |  |
| CCc1n[nH]c2cc(OCCNC[C@H](O)c3cccc(NS(=O)(=O)c4ccccc4F)c3)ccc12 [ex128, (R)-N-(3-(2-(2-(3-ethylindazol-6-yloxy)ethylamino)-1-hydroxyethyl)phenyl)-2-fluorobenzene-sulfonamide] | 0.3 | 16 | 14 | 10 |  |  |  |
| Cc1n[nH]c2cc(OCCNC[C@H](O)c3cccc(NS(=O)(=O)c4ccc(Cl)c(N)c4)c3)ccc12 [ex7, (R)-3-amino-4-chloro-N-(3-(1-hydroxy-2-(2-(3-methylindazol-6-yloxy)ethylamino)ethyl)phenyl)benzenesulfonamide] | 3.7 | 25 | 21 | 15 |  |  |  |
| COc1n[nH]c2cc(OCCNC[C@H](O)c3cccc(NS(=O)(=O)c4cn[nH]c4)c3)ccc12 [ex23, (R)-N-( ? -(1-hydroxy-2-(2-(3-methoxyindazol-6-yloxy)ethylamino)ethyl)phenyl)pyrazole-4-sulfonamide] | 0.5 | 32 | 27 | 2.1 |  |  |  |
| CCc1n[nH]c2cc(OCCNC[C@H](O)c3cccc(NS(=O)(=O)c4cc(N)ccc4F)c3)ccc12 [ex148, (R)-5-amino-N-(3-(2-(2-(3-ethylindazol-6-yloxy)-ethylamino)-1-hydroxyethyl)phenyl)-2-fluorobenzene-sulfonamide] | 0.8 | −0.2 | −0.2 | 15 |  |  |  |
| O=S(=O)(Nc1cccc([C@@H](O)CNCCOc2ccc3c(Cl)n[nH]c3c2)c1)c1cccnc1 [ex155, (R)-N-(3-(2-(2-(3-chloroindazol-6-yloxy)ethylamino)-1-hydroxyethyl)phenyl)pyridine-3-sulfonamide] |  |  |  | 12 | 2.2 | 0 | 0 |
| O=S(=O)(Nc1cccc([C@@H](O)CNCCOc2ccc3c(Cl)n[nH]c3c2)c1)c1ccsc1 [ex157, (R)-N-(3-(2-(2-(3-chloroindazol-6-yloxy)ethylamino)-1-hydroxyethyl)phenyl)thiophene-3-sulfonamide] | 3.2 | 8.1 | 7.0 | 7.0 |  |  |  |
| Cc1n[nH]c2cc(OCCNC[C@H](O)c3cccc(NS(=O)(=O)c4cc(F)c(F)cc4F)c3)ccc12 [ex85, (R)-2,4,5-trifluoro-N-(3-(1-hydroxy-2-(2-(3-methylindazol-6-yloxy)ethylamino)ethyl)phenyl) benzenesulfonamide] | 1.0 | 0.1 | 0.1 | 30 |  |  |  |

Continued, values first:

| β2 receptor % of Control Agonist Response [1] [%] | α1 receptor % of Control Agonist Response, Control; Epinephrine [2] [%] | α1 receptor % of Control Agonist Response, Control; Norepinephrine [2] [%] | β1 receptor % of Control Agonist Response [3] [%] | β2 receptor % of Control Agonist Response ([1]; 10 µM) [%] | α1 receptor % of Control Agonist Response, Control; Epinephrine ([2]; 10 µM) [%] | α1 receptor % of Control Agonist Response, Control; Norepinephrine ([2]; 10 µM) [%] | Structure (SMILES) |
| --- | --- | --- | --- | --- | --- | --- | --- |
| 0.5 | 0.1 | 0.1 | 23 |  |  |  | Nc1cccc(S(=O)(=O)Nc2cccc([C@@H](O)CNCCOc3ccc4c(C5CC5)n[nH]c4c3)c2)c1F [ex215, (R)-3-amino-N-(3-(2-(2-(3-cyclopropyl-indazol-6-yloxy)ethyl-amino)-1-hydroxy-ethyl)phenyl)-2-fluorobenzene-sulfonamide] |
| −0.2 | 0.7 | 0.6 | 9.4 |  |  |  | Nc1ccc(F)c(S(=O)(=O)Nc2cccc([C@@H](O)CNCCOc3ccc4c(Cl)n[nH]c4c3)c2)c1 [ex242, (R)-5-amino-N-(3-(2-(2-(3-chloroindazole-6-yloxy)ethylamino)-1-hydroxyethyl)phenyl)-2-fluorobenzenesulfonamide] |
| 8.8 | 17 | 15 | 8.0 |  |  |  | O=S(=O)(Nc1cc([C@@H](O)CNCCOc2ccc3c(C(F)(F)F)n[nH]c3c2)ccc1Cl)C1CC1 [ex199, (R)-N-(2-chloro-5-(1-hydroxy-2-(2-(3-(tri-fluoromethyl)-indazol-6-yloxy)ethylamino)-ethyl)phenyl)-cyclo-propanesulfonamide] |
| −0.5 | 19 | 17 | 3.5 |  |  |  | O=S(=O)(Nc1cccc([C@@H](O)CNCCOc2ccc3c(C(F)(F)F)n[nH]c3c2)c1)c1cn[nH]c1 [ex198, (R)-N-(3-(1-hydroxy-2-(2-(3-(trifluoromethyl)-indazol-6-yloxy)ethylamino)ethyl)phenyl)-pyrazole-4-sulfonamide] |
| 0.3 | 6.4 | 6 | 13 |  |  |  | Nc1ccc(F)c(S(=O)(=O)Nc2cccc([C@@H](O)CNCCOc3ccc4c(C(F)(F)F)n[nH]c4c3)c2)c1 [ex185, (R)-5-amimo-2-fluoro-N-(3-(1-hydroxy-2-(2-(3-(trifluoro-methyl)-indazol-6-yloxy)ethylamino)ethyl)phenyl)ben-zenesulfonamide] |
| 1.9 | 0.6 | 0.5 | 7.2 |  |  |  | O=S(=O)(Nc1cccc([C@@H](O)CNCCOc2ccc3c(C(F)(F)F)n[nH]c3c2)c1)c1cccnc1 [ex186, (R)-N-(3-(1-hydroxy-2-(2-(3-(trifluoromethyl)-indazol-6-yloxy)ethylamino)ethyl)phenyl)pyridine-3-sulfonamide] |
